Measurements taken from patent publication US20050031598A1, “Engineering three-dimensional tissue structures using differentiating embryonic stem cells” (priority 2002, published 2005).

Assays:
Assay type in all cases: cell-based, human
[1] = test system: differentiating hES cells (EB day 8); experiment: Lumen diameters of tubulocystic structures lined by cytokeratin-positive epithelium in hES cell-scaffold constructs; conditions: scaffold constructs grown two weeks, IGF-I 10 ng/mL, mean ±SD; for percentage of lumens >40 μm of total number of lumens (tubulocystic structures): RA 300 ng/ml, control 65%±4
Method: (§1) For seeding in matrigel, 8-9 days-old EBs were trypsinized, and 0.8×10^6 cells were mixed in 25 μL of a 50% (vol/vol) media and matrigel (growth factor-reduced, BD Biosciences, Bedford, Mass.). EB media was supplemented with the following growth factors: TGF-β1 (2 ng/mL), activin-A (20 ng/mL), and IGF-I (10 ng/mL), (R&D Systems, Minneapolis, Minn.), and RA (300 ng/ml) (Sigma). The mixture was solidified in a 6-well Petri dish at 37° C. and then detached from the dish with sterile blades. 4 mL of each respective EB media was added. For seeding on scaffolds, 0.8×10^6 cells were seeded into each scaffold using 25 μL of a mixture containing 50% (vol/vol) of Growth Factor-Reduced Matrigel and the respective EB media. After seeding the cells, scaffolds were suspended in 6-well petri dishes in their respective media. For some experiments, scaffolds were soaked in 50 μg/mL of fibronectin (Sigma) for 1 hour and washed in PBS prior to direct cell seeding (without matrigel) in 25 μL of EB media.
(§2) Tissue constructs were fixed for 6 hours in 10% neutral buffered formalin, routinely processed, and embedded in paraffin. 5-μm thick transverse sections were placed on silanized slides for immunohistochemistry or staining with hematoxylin and eosin (H & E), trichrome, or Safranin O. Immunohistochemical staining was carried out using the Biocare Medical Universal HRP-DAB kit (Biocare Medical, Walnut Creek, Calif.) according to the manufacturer's instructions, with prior heat-treatment at 90° C. for 20 minutes in ReVeal buffer (Biocare Medical) for epitope recovery. […]
Constructs grown for two weeks in control medium or in the presence of IGF or RA were processed and stained with anti-cytokeratin antibody as described above. Tubulocystic structures were counted and lumen diameters measured and grouped (large>200 μm, medium (Med)>40 μm, small<[…], closed and multilayered lumens). The results, the mean values (±SD) of samples obtained in two different experiments performed in duplicate, were recorded as percentages of lumens in each group from total number of lumens in each sample.

[2] = test system: differentiating hES cells (EB day 8); experiment: Histochemical and immunohistochemical staining of hES cell constructs on PLLA/PLGA scaffolds; conditions: scaffold constructs, two weeks; for alpha feto protein (AFP) and albumin staining: in comparison to the control
Method: as §1
(§3) Tissue constructs were fixed for 6 hours in 10% neutral buffered formalin, routinely processed, and embedded in paraffin. 5-μm thick transverse sections were placed on silanized slides for immunohistochemistry or staining with hematoxylin and eosin (H & E), trichrome, or Safranin O. Immunohistochemical staining was carried out using the Biocare Medical Universal HRP-DAB kit (Biocare Medical, Walnut Creek, Calif.) according to the manufacturer's instructions, with prior heat-treatment at 90° C. for 20 minutes in ReVeal buffer (Biocare Medical) for epitope recovery. The primary antibodies were mouse anti-human: desmin (1:150), alpha feto protein (1:2500), cytokeratin 7 (1:25), CD31 (1:20), albumin (1:100), vimentin (1:50), S100 (1:100) (all from Dako), anti-human βIII-tubulin (Sigma, 1:500), nestin (Transduction Laboratories, San Diego, Calif., 1:1000), CD34 (Labvision, Fremont, Calif., 1:20), SSEA4 (Hybridoma Bank, University of Iowa, Ames, 1:4), and Tra 1-60 (a gift from Peter Andrews, University of Sheffield, Sheffield, U.K., 1:10). Human and mouse tissues (Daks) were used as controls to ensure antibody specificity (FIG. 1). For proliferation studies, culture medium was incubated with […] of 5′-bromo-2′-deoxyuridine (BrdUrd) (Sigma) for 3 hours before fixation. Tissue sections were stained using mouse anti-BrdUrd antibodies (1:1000).

[3] = test system: differentiating hES cells (EBs day 8); experiment: Differentiation of hES cells in matrigel alone; conditions: for shape of cell-matrigel structure: two weeks in suspension
Method: as §1, §3

[4] = test system: differentiating hES cells (EB day 8); experiment: RT-PCR gene expression analysis of hES cell constructs on PLLA/PLGA scaffolds; conditions: scaffold constructs, two weeks
Method: as §1
Total RNA was isolated by an RNEasy Mini Kit (Qiagen, Chatsworth, Calif.). […] For some gels including RNA amplified using a GADPH primer, semi-quantitative analysis was performed by measuring the mean pixel intensities of each band and normalizing the measured intensity to the mean pixel intensity of the GADPH band.

hEBs (day 8) = experiment: Staining of hEBs incubated with growth factors; conditions: EBs conditioned with growth factor
Method: FIG. 4 includes light micrographs of 5-μm-thick sections taken from hEBs (day 8), incubated for additional 2 weeks with control medium (CON) or medium supplemented with retinoic acid (RA), or insulin-like growth factor (IGF), and stained with antibodies against human cytokeratin, α-feto-protein, and nestin (scale bars=200 μm.)
hES cells (H9 clone) were grown on mouse embryonic fibroblasts (Cell Essential, Boston, Mass.) in KnockOut Medium (Gibco-BRL, Gaithersburg, Md.), a modified version of Dulbeco's modified Eagle's medium optimized for ES cells, as described^5. To induce formation of EBs, hES cell colonies were dissociated with 1 mg/ml collagenase type IV and suspended in differentiation media without LIF and bFGF in Petri dishes^5.
as §2

Compound | percentage of lumens >40 μm of total number of lumens (tubulocystic structures) [1] | increase in total percentage of cytokeratin-positive areas within the tissue ([2]; versus control medium, P<0.01) | percentage of lumens >200 μm of total number of lumens (tubulocystic structures) [1] | Safranin-O staining for glycosaminoglycans (cartilage extracellular matrix) [2] | alpha feto protein (AFP) and albumin staining [2] | AFP expression/staining ([3]; two weeks) | epithelial-lined tubular or cystic structures (histology) ([3]; two weeks) | shape of cell-matrigel structure [3] | collagen formation (trichrome staining) [2] | cartilage matrix protein (CMP) expression ([4]; compared to the other samples) | Safranin-O staining of cartilage-derived GAG ([3]; two weeks) | safranin-O staining (hEBs (day 8)) | expression of pancreatic gene PDX-1 ([4]; versus other growth factors) | cellular viability ([3]; two weeks)
CC1=C(/C=C/C(C)=C/C=C/C(C)=C/C(=O)O)C(C)(C)CCC1 [RA, retinoic acid, reference compound] | 25%±12 | ~4 fold | – | – | – | – | – | – | – | – | – | – | – | –
IGF: insulin growth factor IGF-I, 10 ng/mL (R&D Systems) | 84%±6 | – | 10%±3 | did not induce formation of Safranin O-positive matrix | high levels of AFP and albumin in more defined areas | some AFP staining could be observed | occasional epithelial-lined tubular or cystic structures | larger and less condensed | – | – | – | – | – | –
TGF-β: transforming growth factor beta, TGF-β1, 2 ng/mL (R&D Systems) | – | – | – | high levels of Safranin-O staining | – | – | did not contain any such structures | – | induced mature collagen formation | higher levels | No Safanin-O staining | no safranin-O staining was observed | – | –
activin-A | – | – | – | did not induce formation of Safranin O-positive matrix | high levels of alpha feto protein (AFP) and albumin throughout the sample | No AFP expression was observed | did not contain any such structures | small, condensed spheres | – | – | – | – | higher levels | least cellular viability
